Source: patent US20250339391A1, “METHODS FOR EFFECTIVE MANAGEMENT OF PAIN” (South Rampart Pharma, Inc., priority 2024, published 2025)

Assay: LC-MS/MS detection of D10-SRP-001 in rat brain (PAG)
Format: in vivo
Conditions: 30 min after IP injection
Procedure: Deuterated compound D10-SRP-001 was synthesized by Olon Ricerca Bioscience (Concord, OH), and purity was determined to be >99.9% by HPLC. This was used as pure analytical standard for detection of SRP-001 using an LC-MS/MS method. Similarly, pure analytical standard of AM404 (10 ng/mL) obtained from Cayman Chemical (Ann Arbor, MI) was used to characterize the full fragmentation pattern of AM404. […] Thirty min post-injection, the animals were sacrificed (same as in the CFA/von Frey model), their brains harvested, and the midbrain periaqueductal gray (PAG) region excised. SRP-001 or AM404 were extracted from the PAG using a liquid-liquid extraction method using 1:1 MeOH:H2O for LC-MS/MS and were loaded onto a liquid chromatography-tandem mass spectrophotometer for analysis. The mass spectrophotometer was operated in multiple reaction monitoring (MRM) mode using positive ion electrospray. D10-SRP-001 was detected by monitoring the m/z transition 416→186. AM404 was detected by monitoring the m/z transition 396→287.

Which “detection in the brain” value does the source give for `[2H]C([2H])([2H])C([2H])([2H])N(C(=O)c1ccccc1S(=O)(=O)NCC(=O)Nc1ccc(O)cc1)C([2H])([2H])C([2H])([2H])[2H]` [D10-SRP-001] here?
The value was “detected in the brain”.
